SMILES strings stand for the structures. pIC50: −log10 of the molar value.

Chain of human HPK1 (MAP4K1) (Q92918 17-274): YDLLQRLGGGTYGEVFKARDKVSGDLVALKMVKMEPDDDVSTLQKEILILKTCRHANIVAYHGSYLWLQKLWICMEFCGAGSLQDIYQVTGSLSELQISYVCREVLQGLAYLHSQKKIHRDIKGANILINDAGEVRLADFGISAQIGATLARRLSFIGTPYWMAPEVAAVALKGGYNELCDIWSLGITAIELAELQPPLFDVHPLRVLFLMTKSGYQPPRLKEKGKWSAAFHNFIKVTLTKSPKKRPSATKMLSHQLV

The first experiment has as its target human HPK1 (MAP4K1) (Homo sapiens (Human), UniProt Q92918). The experiment can be described thus: HPK1 IC50 Assay (TR-FRET peptide phosphorylation). It is filed as biochemical. Particulars: 0.15 nM HPK1, 10 μM ATP, 1 μM STK S1 peptide substrate; geometric mean. A digest of the protocol: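 Pre-activated, dually phosphorylated baculovirus-expressed HPK1 kinase domain (0.15 nM) preincubated 15 min with compound, then reacted 3 h at 25° C with 10 μM ATP and 1 μM STK S1 peptide in BES pH 7.0 buffer. Phosphopeptide read by TR-FRET (665/620 nm); four-parameter fit, geometric-mean IC50.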
As to `CC(C)n1cnc2cc(-c3ccc4c(c3)N([C@H]3C[C@@](C)(N5CCCCC5)C3)C(=O)C43CC3)nc(Nc3cc(C(=O)NCC(F)F)c(Cl)c(F)c3F)c21` [Example 275, 2-chloro-N-(2,2-difluoroethyl)-3,4-difluoro-5-((3-isopropyl-6-(1′-((1s,3s)-3-methyl-3-(piperidin-1-yl)cyclobutyl)-2′-oxospiro[cyclopropane-1,3′-indolin]-6′-yl)-3H-imidazo[4,5-c]pyridin-4-yl)amino)benzamide], the pIC50 was 10.22.
On the same count and under the same terms, the value for `CCNC(=O)c1cc(Nc2nc(-c3cnc4c(c3)N([C@H]3C[C@@](C)(N5CCCCC5)C3)C(=O)C4(C)C)cc3ncn(C(C)C)c23)c(F)c(F)c1F` [Example 278, 5-((6-(3,3-dimethyl-1-((1s,3s)-3-methyl-3-(piperidin-1-yl)cyclobutyl)-2-oxo-2,3-dihydro-1H-pyrrolo[3,2-b]pyridin-6-yl)-3-isopropyl-3H-imidazo[4,5-c]pyridin-4-yl)amino)-N-ethyl-2,3,4-trifluorobenzamide] was 9.70.

The experiment is the same for the next values; noted with them: recombinant HPK1 kinase domain 0.15 nM, 10 μM ATP, 1 μM STK S1 peptide; geometric mean of multiple experiments.
Take `CNC(=O)c1cc(Nc2nc(-c3ccc4c(c3)N([C@H]3C[C@@H](N5CCCCC5)C3)C(=O)C43CCN(C(C)=O)CC3)cc3ncn(C(C)C)c23)c(F)cc1C` [Example 92]: the pIC50 was 10.10.
`CNC(=O)c1cc(Nc2nc(-c3ccc4c(c3)N([C@H]3C[C@@H](N5CC6C(C5)C6(F)F)C3)C(=O)C4(C)C)cc3ncn(C(C)C)c23)ccc1C` (some centres unmarked) [Example 7]: the pIC50 was 9.40.
Regarding `CNC(=O)c1cc(Nc2nc(-c3ccc4c(c3)N([C@H]3C[C@@H](N5CCCC(C)(C)C5)C3)C(=O)C4(C)C)cc3ncn(C4CC4)c23)ccc1C` [Example 38], the negative logarithm of the IC50 (pIC50) was 10.15.
On to `CNC(=O)c1cc(Nc2nc(-c3ccc4c(c3)N([C@H]3C[C@@H](N5CCCCC5)C3)C(=O)C4(C)C)cc3ncn(C(C)C)c23)c(F)cc1F` [Example 182], for which the pIC50 was 9.70.
Same read-out and setting: the value for `CNC(=O)c1cc(Nc2nc(-c3ccc4c(c3)N([C@H]3C[C@@H](N5CCCCC5)C3)C(=O)C43CCN(C(C)=O)CC3)cc3ncn(C4CC4)c23)cc(C)c1C` [Example 96] was 9.70; that for `CNC(=O)c1cc(Nc2nc(-c3ccc4c(c3)N([C@H]3C[C@@H](N5CCCCC5)C3)C(=O)C43CCN(C(=O)C4CC4)CC3)cc3ncn(C4CC4)c23)ccc1C` [Example 51] was 10.00; that for `CNC(=O)c1cc(Nc2nc(-c3ccc4c(c3)N([C@H]3C[C@@H](N5CCCCC5)C3)C(=O)C43CCN(C(C)=O)CC3)cc3ncn(C4CC4)c23)ccc1C` [Example 58a] was 10.00.
As to `Cc1ccc(Nc2nc(-c3ccc4c(c3)N([C@H]3C[C@@H](N5CCCCC5)C3)C(=O)C4(C)C)cc3ncn(C(C)C)c23)cc1C(=O)N[C@@H](C)C(F)F` [Example 21A, N-(1,1-difluoropropan-2-yl)-5-((6-(3,3-dimethyl-2-oxo-1-((1s,3s)-3-(piperidin-1-yl)cyclobutyl)indolin-6-yl)-3-isopropyl-3H-imidazo[4,5-c]pyridin-4-yl)amino)-2-methylbenzamide], the negative-log IC50 (pIC50) is 10.15.
As for `CCn1cnc2cc(-c3ccc4c(c3)N([C@H]3C[C@@H](N5CCCCC5)C3)C(=O)C4(C)C)nc(Nc3ccc(C)c(C(=O)NC)c3)c21` [Example 102], the pIC50 is 10.05.
For the compound `CC[C@H](C)n1cnc2cc(-c3ccc4c(c3)N([C@H]3C[C@@H](N5CC[C@@H](F)C5)C3)C(=O)C4(C)C)nc(Nc3cc(C(=O)NC)c(C)cc3F)c21` [Example 109], the pIC50 is 9.52.
Turning to `Cc1ccc(Nc2nc(-c3ccc4c(c3)N([C@H]3C[C@@H](N5CCCCC5)C3)C(=O)C4(C)C)cc3ncn(C(C)C)c23)cc1C(=O)NC(C)C` [Example 136, 5-((6-(3,3-dimethyl-2-oxo-1-((1s,3s)-3-(piperidin-1-yl)cyclobutyl)indolin-6-yl)-3-isopropyl-3H-imidazo[4,5-c]pyridin-4-yl)amino)-N-isopropyl-2-methylbenzamide], the negative-log IC50 (pIC50) is 10.00.
Take `Cc1cc(F)c(Nc2nc(-c3ccc4c(c3)N([C@H]3C[C@@H](N5C[C@H]6CC[C@@H]5C6)C3)C(=O)C4(C)C)cc3ncn(C(C)C)c23)cc1C(=O)NC1(C(F)F)CC1` [Example 66]: the pIC50 is 10.05.
Regarding `Cc1c(C(=O)NC2(C(F)F)CC2)cc(Nc2nc(-c3ccc4c(c3)N([C@H]3C[C@@H](N5C[C@H]6CC[C@@H]5C6)C3)C(=O)C4(C)C)cc3ncn(C(C)C)c23)c(F)c1F` [Example 145, 5-((6-(1-((1S,3s)-3-((1R,4S)-2-azabicyclo[2.2.1]heptan-2-yl)cyclobutyl)-3,3-dimethyl-2-oxoindolin-6-yl)-3-isopropyl-3H-imidazo[4,5-c]pyridin-4-yl)amino)-N-(1-(difluoromethyl)cyclopropyl)-3,4-difluoro-2-methylbenzamide], the negative logarithm of the IC50 (pIC50) was 10.15.
Same read-out and setting: the value for `CNC(=O)c1cc(Nc2nc(-c3ccc4c(c3)N([C@H]3C[C@@H](N5C[C@H]6CC[C@@H]5C6)C3)C(=O)C43CCN(C(=O)C45CC(C4)C5)CC3)cc3ncn(C4CC4)c23)ccc1C` [Example 43] was 10.10.
For `CNC(=O)c1cc(Nc2nc(-c3ccc4c(c3)N([C@H]3C[C@@H](NC5CCC(F)(F)CC5)C3)C(=O)C4(C)C)cc3ncn(C(C)C)c23)ccc1C` [Example 80], the negative logarithm of the IC50 (pIC50) was 10.00.

(Values after patent US11203591B2, “Substituted 6-azabenzimidazole compounds” (Gilead Sciences, Inc., priority 2018, dated 2021).)
